Experimental data reported in patent publication US8450333B2, “Molecules for regulating cell death” (The Regents of The University of California, priority 2003, dated 2013).

test system: actin cytoskeleton and peripheral ER network; assay: Actin cytoskeleton and peripheral ER network in yeast; type: cell-based; conditions: added after mfisi-1 treatment
Excerpt: These structures are routinely examined in yeast mitochondrial morphology mutants as a test for the specificity of the mitochondrial phenotype.

Q: Which results are given for `C/C1=C/C(=O)O[C@@H]2C[C@@H](CC[C@H](C)/C=C\C=C\CC1)O[C@@](O)([C@@H]1CSC(=O)N1)C2` [Latrunculin-A]?
A: effect on actin cables and patches: complete disruption of actin cables and patches; effect on mitochondrial nets: caused mitochondrial nets to collapse and aggregate

test system: mammalian COS cells; assay: Mitochondrial fragmentation induced by staurosporine (STS) in COS cells; type: cell-based; conditions: COS cells stimulated with STS; mfisi-1 at 50 μM; n=100
Excerpt: As indicated above, we observed that mfisi-1 causes changes in mitochondrial morphology in mammalian cells that are consistent with a block in mitochondrial fission. Thus, we examined the effects of mfisi-1 on mitochondrial fragmentation caused by the intrinsic apoptotic stimulus staurosporine (STS) in mammalian COS cells. […] These observations indicate that mfisi-1 retards apoptosis-stimulated Drp1-dependent mitochondrial fission.

Q: What does the source list for `CN[C@@H]1C[C@H]2O[C@@](C)([C@@H]1OC)n1c3ccccc3c3c4c(c5c6ccccc6n2c5c31)C(=O)NC4` [STS, staurosporine, reference compound]?
A: % collapsed nets: 0%; % fragmented: 86%; % loose nets: 0%; % reticular: 14%

test system: wild type yeast cells; assay: Mitochondrial morphology in yeast (secondary screen, mitochondrial targeted GFP); type: cell-based, S. cerevisiae; conditions: Structure Function Analysis of Compound A1, yeast
Excerpt: Secondary screens: Compounds identified in the primary growth assay-based screens outlined above are screened secondarily by examining their effects on mitochondrial morphology. We use the steady state structure of mitochondria as an indicator of the relative rates of mitochondrial fission and fusion in cells. […] Mitochondria are visualized using a mitochondrial targeted GFP that is efficiently targeted to both wild type and respiratory deficient mitochondria (Tieu et al., 2000 The Journal of Cell Biology 151, 353-365.).
All compounds identified in the primary growth assay-based screens outlined above were screened secondarily by examining their effects on mitochondrial morphology in yeast. From previous work, we know that the steady state structure of mitochondria is an indicator of the relative rates of mitochondrial fission and fusion in cells (FIG. 7). Specifically, net-like structures indicate a block in fission, and fragmented mitochondrial structures indicate a block in fusion. […] In this secondary assay, small molecules were judged to be a hit if they produced a mutant phenotype in greater than 5% of the cell population.
To determine what structural features are important for the effects of mfisi-1 on mitochondrial fission, we identified structurally related molecules using a chemoinformatics approach. We utilized web-based ChemNavigator to search available public and commercial compound databases for small molecules that uniquely represented key structural features of mfisi-1. We tested a total of 15 small molecules related to mfisi-1 for their effects on mitochondrial morphology in yeast, each at a concentration of 50 μM (Table 3).

Q: For `COc1cc(-n2c(SC)nc3ccccc3c2=O)c(Cl)cc1Cl` [drawing 9], which “% fragmented” value is on record?
A: 11%

Q: And the “% nets” value?
A: 7%

Q: What about the “% reticular” value of the same compound?
A: 82%

Q: For `Cc1cccc(-n2c(S)nc3ccccc3c2=O)c1` [drawing 15], which “% fragmented” value is on record?
A: 0%

Q: And the “% nets” value?
A: 0%

Q: And the “% reticular” value?
A: 100%

Q: What does the source list for `COc1ccccc1-n1c(S)nc2ccccc2c1=O` [drawing 16]?
A: % fragmented: 32%; % nets: 0%; % reticular: 68%

Q: With `Cc1ccccc1-n1c(S)nc2ccccc2c1=O` [drawing 8] as the compound, how does the “% fragmented” value read?
A: 8%

Q: And the “% nets” value?
A: 29%

Q: And the “% reticular” value?
A: 63%

Q: Which results are given for `O=C(O)CSc1nc2ccccc2c(=O)n1-c1ccccc1` [drawing 11]?
A: % fragmented: 8%; % nets: 5%; % reticular: 87%

Q: With `O=c1c2ccccc2nc2n1CCS2` [drawing 19] as the compound, how does the “% fragmented” value read?
A: 7.3%

Q: And the “% nets” value?
A: 0%

Q: And the “% reticular” value?
A: 92.7%

Q: With `C=CCSc1nc2ccccc2c(=O)n1-c1cccc(C)c1` [drawing 13] as the compound, how does the “% fragmented” value read?
A: 8%

Q: What about the “% nets” value of the same compound?
A: 1%

Q: And the “% reticular” value?
A: 91%

Q: For `C=CCSc1nc2ccccc2c(=O)n1-c1ccccc1OC` [drawing 18], which “% fragmented” value is on record?
A: 3.2%

Q: And the “% nets” value?
A: 0%

Q: And the “% reticular” value?
A: 96.8%

Q: What does the source list for `O=c1c2ccccc2nc(S)n1Cc1ccccc1`?
A: % fragmented: 6%; % nets: 5%; % reticular: 89%

Q: `CSc1nc2ccccc2c(=O)n1-c1cccc(C)c1` [drawing 14] was tested. Which “% fragmented” value did it give?
A: 6%

Q: What about the “% nets” value of the same compound?
A: 0%

Q: And the “% reticular” value?
A: 94%

Q: Which “% fragmented” value does the source give for `CCSc1nc2ccccc2c(=O)n1-c1cccc(C)c1` [drawing 12] here?
A: 51%

Q: And the “% nets” value?
A: 1%

Q: What about the “% reticular” value of the same compound?
A: 48%

Q: Which results are given for `C=CCSc1nc2ccccc2c(=O)n1Cc1ccccc1` [drawing 17]?
A: % fragmented: 69%; % nets: 0%; % reticular: 31%

same assay, conditions: yeast, each at a concentration of 50 μM

Q: With `Cc1ccccc1-n1c(S)nc2ccccc2c1=O` [2-Mercapto-3-o-tolyl-3H-quinazolin-4-one] as the compound, how does the “% net-like structures” value read?
A: 30%

Q: `CCSc1nc2ccccc2c(=O)n1-c1cccc(C)c1` [2-Ethylsulfanyl-3-m-tolyl-3H-quinazolin-4-one] was tested. Which “% net-like structures” value did it give?
A: 2%

Q: How did the “% net-like structures” value turn out when `C=CCSc1nc2ccccc2c(=O)n1Cc1ccccc1` [2-Allylsulfanyl-3-benzyl-3H-quinazolin-4-one] was run?
A: 0%

Q: Which “% net-like structures” value does the source give for `Cc1cccc(-n2c(S)nc3ccccc3c2=O)c1` [2-Mercapto-3-m-tolyl-3H-quinazolin-4-one] here?
A: 0%

Q: Which “% net-like structures” value does the source give for `COc1cc(-n2c(SC)nc3cc(Cl)ccc3c2=O)c(Cl)cc1Cl` [mfisi-1.1, 7-chloro-3-(2,4-Dichloro-5-methoxy-phenyl)-2-methylsulfanyl-3H-quinazolin-4-one] here?
A: 7%

Q: `CSc1nc2ccccc2c(=O)n1Cc1ccccc1` [3-Benzyl-2-methylsulfanyl-3H-quinazolin-4-one] was tested. Which “% net-like structures” value did it give?
A: 5%

Q: `COc1ccccc1-n1c(S)nc2ccccc2c1=O` [2-Mercapto-3-(2-methoxy-phenyl)-3H-quinazolin-4-one] was tested. Which “% net-like structures” value did it give?
A: 0%

Q: `O=c1c2ccccc2nc2n1CCS2` [2,3-Digydor-thiazolo[2,3-b]quinazolin-4-one] was tested. Which “% net-like structures” value did it give?
A: 0%

Q: For `CSc1nc2cc(Cl)ccc2c(=O)n1-c1cc(OC(C)C)c(Cl)cc1Cl` [mfisi-1.3, 7-chloro-3-(2,4-Dichloro-5-isopropoxy-phenyl)-2-methylsulfanyl-3H-quinazolin-4-one], which “% net-like structures” value is on record?
A: 2%

Q: With `COc1cc(-n2c(SC)nc3ccccc3c2=O)c(Cl)cc1Cl` [mfisi-1.2, 3-(2,4-Dichloro-5-methoxy-phenyl)-2-methylsulfanyl-3H-quinazolin-4-one] as the compound, how does the “% net-like structures” value read?
A: 7%

Q: How did the “% net-like structures” value turn out when `CSc1nc2ccccc2c(=O)n1-c1cccc(C)c1` [2-Methylsulfanyl-3-m-tolyl-3H-quinazolin-4-one] was run?
A: 0%

Q: `C=CCSc1nc2ccccc2c(=O)n1-c1cccc(C)c1` [2-Allylsulfanyl-3-m-tolyl-3H-quinazolin-4-one] was tested. Which “% net-like structures” value did it give?
A: 1%

Q: `COc1cc(-n2c(SC)nc3ccc(Cl)cc3c2=O)c(Cl)cc1Cl` [mfisi-1.4, 6-chloro-3-(2,4-Dichloro-5-methoxy-phenyl)-2-methylsulfanyl-3H-quinazolin-4-one] was tested. Which “% net-like structures” value did it give?
A: 2%

Q: With `C=CCSc1nc2ccccc2c(=O)n1-c1ccccc1OC` [2-Allylsulfanyl-(2-methoxy-phenyl)-3H-quinazolin-4-one] as the compound, how does the “% net-like structures” value read?
A: 0%

Q: `O=C(O)CSc1nc2ccccc2c(=O)n1-c1ccccc1` [(4-oxo-3-phenyl-3,4-dihydro-quinazolin-2-ylsulfanyl)-acetic acid] was tested. Which “% net-like structures” value did it give?
A: 5%
